Test results: patent US12364673B2, “Methods and compositions for treating lysosomal storage disorders: ambroxol as treatment agent for Mucopolysaccharidoses III (Sanfilippo syndrome)” (Lysosomal and Rare Disorders Research and Treatment Center, …, priority 2019, dated 2025)

What was measured:
PBMC [1] = assay: ATP production of ambroxol incubated PBMC; format: cell-based, human; conditions: 100 μM ambroxol
[2] = tested on: autophagy fusion with the lysosome; assay: Autophagy fusion staining with DALGreen detection reagent; format: cell-based, human
[3] = tested on: lysosomal integral membrane protein-2 (LIMP-2); conditions: cited from earlier work
PBMC [4] = assay: Cell viability of ambroxol incubated PBMC; format: cell-based, human; conditions: 100 μM ambroxol
heparan sulfate (HS) = assay: Heparan sulfate ELISA in PBMC cell extracts; format: cell-based, human
Experimental: To investigate the effect of ambroxol on HS degradation, the heparin sulfate ELISA assay (Aviva Systems Siology) was assessed. PBMC derived from healthy controls and MPS III patients were incubated with a concentration of ambroxol 1, 10 and 100 μM. PBMC after five days of incubation were collected and heparan sulfate levels were measured in cells extracts.

[5] = tested on: heparan-alpha-glucosaminide N-acetyltransferase (HGSNAT); assay: HGSNAT enzyme activity in PBMC; format: cell-based, human
Experimental: PBMC were cultured for 5 days with an increasing concentration of ambroxol.
HGSNAT enzyme activity was measured and compared as negative control versus ambroxol incubated PBMC derived from a patient with MPS III Type C (FIG. 2).

[6] = tested on: N-acetyl-alpha-glucosaminidase (NAGLU); assay: NAGLU enzyme activity in patient-derived PBMC; format: cell-based, human; conditions: PBMC from MPS III Type B patient, 5 days incubation
Experimental: PBMC were cultured for 5 days with an increasing concentration of ambroxol. […] We measured enzyme activity in PBMC (peripheral blood mononuclear cell) derived from MPS III Type B patients with NAGLU enzyme deficiency. After incubation for five days in the presence of 1, 10, and 100 μM of ambroxol, NAGLU enzyme activity was measured and compared negative control versus ambroxol incubated cells (FIG. 1). […] PBMC were cultured for 5 days with an increasing concentration of ambroxol.

acidic lysosomes = assay: Lysosome staining with LysoTracker Red DND-99 dye; format: cell-based, human
Experimental: To examine the effects of ambroxol on autophagy-lysosomal pathway, the autophagy dye […] and lysosome marker LysoTracker Red were used. […] The autophagy fusion was studied using autophagy detection reagent […] fluorescence probe stained autophagosome on late-phase autophagy when autophagosome fused with a lysosome. Lysosome organelles were analyzed using LysoTracker Red DND-99 red-fluorescent dye which stained acidic organelles in live cells. PBMC were isolated from the patient with MPS III-B disease, incubated five days with ambroxol, and then were stained. […] Macrophages derived from a patient with MPS III Type C.

[7] = biological target: T1, glucocerebrosidase (GCase) (Homo sapiens, UniProt P04062); conditions: pH 4.3, near lysosomal pH; cited from earlier work
T1 sequence (P04062 40-536): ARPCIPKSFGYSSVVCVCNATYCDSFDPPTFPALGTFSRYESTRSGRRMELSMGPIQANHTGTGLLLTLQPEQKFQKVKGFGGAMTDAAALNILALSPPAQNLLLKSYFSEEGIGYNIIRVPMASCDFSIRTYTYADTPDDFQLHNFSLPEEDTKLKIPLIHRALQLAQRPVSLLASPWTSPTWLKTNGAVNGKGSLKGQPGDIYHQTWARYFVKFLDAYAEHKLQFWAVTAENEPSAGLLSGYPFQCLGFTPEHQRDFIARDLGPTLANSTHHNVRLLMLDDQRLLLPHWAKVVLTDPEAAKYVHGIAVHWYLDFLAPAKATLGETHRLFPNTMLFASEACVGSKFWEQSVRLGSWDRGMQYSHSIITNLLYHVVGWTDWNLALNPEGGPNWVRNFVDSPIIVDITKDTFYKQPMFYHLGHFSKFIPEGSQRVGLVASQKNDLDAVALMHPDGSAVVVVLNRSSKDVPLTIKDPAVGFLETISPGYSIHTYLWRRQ

[8] = PBMC from patient with MPS III-B, five days with ambroxol
[9] = macrophages from patient with MPS III Type C, 5 days with ambroxol

With `Nc1c(Br)cc(Br)cc1CN[C@H]1CC[C@H](O)CC1` [ambroxol, trans-4-(2-Amino-3,5-dibromobenzylamino)-cyclohexanol] the ATP production (PBMC [1]) was “inhibition”, the “autophagy fusion (DALGreen staining)” value ([2]; PBMC from healthy control, five days with ambroxol) was “significant increase” and the “activity of autophagy fusion (DALGreen staining)” value [2, 8] was “increasing”. For the same molecule, the “autophagy fusion (DALGreen staining)” value ([2]; PBMC from two patients with MPS III-D, five days with ambroxol) was “significant increase”, the “activity of autophagy fusion (DALGreen staining)” value [2, 9] was “increasing” and the LIMP-2 level [3] was “increased”. For the same molecule, the cell viability (PBMC [4]) was “decreasing”, the “heparan sulfate (HS) level” value (heparan sulfate (HS); PBMC from MPS III-A patient, 5 days with ambroxol, vs negative control) was “decreased” and the “heparan sulfate (HS) level” value (heparan sulfate (HS); PBMC from MPS III-B patient, 5 days, 10 μM ambroxol) was “decreased”. For the same molecule, the “heparan sulfate (HS) level” value (heparan sulfate (HS); PBMC from MPS III-B patient, 5 days, 100 μM ambroxol) was “decreased”, the “heparan sulfate (HS) level” value (heparan sulfate (HS); PBMC from MPS III-C patient, 5 days with ambroxol, vs negative control) was “decreasing” and the “heparan sulfate (HS) level” value (heparan sulfate (HS); PBMC from MPS III-D patient, 5 days, 10 μM ambroxol) was “decreased”. The “heparan sulfate (HS) level” value (heparan sulfate (HS); PBMC from MPS III-D patient, 5 days, 100 μM ambroxol) was “decreased”, the “heparan sulfate (HS) level” value (heparan sulfate (HS); PBMC from healthy controls (n=4), 5 days with ambroxol, vs negative control) was “decreased” and the HGSNAT activity ([5]; PBMC from a healthy subject, ambroxol incubation (data not shown)) was “no increase”. For the same molecule, the HGSNAT activity ([5]; PBMC from a patient with MPS III Type C, 5 days ambroxol incubation) was “no increase”, the “NAGLU enzyme activity increase vs negative control” value ([6]; 1 μM ambroxol) was 15% and the “NAGLU enzyme activity increase vs negative control” value ([6]; 10 μM ambroxol) was 15%. The NAGLU activity ([6]; 100 μM ambroxol) was “Decreasing”, the “proportion of acidic lysosomes (LysoTracker Red staining)” value (acidic lysosomes; [8]) was “significant increasing” and the lysosome function (acidic lysosomes; cells derived from healthy controls and MPS III-B, MPS III-C and MPS III-D patients (summary)) was “activates”. For the same molecule, the “proportion of acidic lysosomes (LysoTracker Red staining)” value (acidic lysosomes; [9]) was “significant increasing” and the “effect on GCase enzyme” value [7] was “activator”.
